Assays:
[1] = system: peripheral blood mononuclear cells (PBMC); experiment: PBMC proliferation in vitro (tritiated thymidine incorporation), Example 1; format: cell-based, human; details: for PBMC Percent proliferation, normalized all three stimuli: normalized to average of group A day 57, n = 36; for PBMC Percent proliferation: n = 12; for Percent proliferation: 2 subjects with largest and smallest day 57-day 1 difference removed, n = 10
Method: (§1) After a screening visit at which blood was drawn to test for IgG antibody against HSV-1 and subjects were interviewed for inclusion/exclusion criteria, selected subjects returned for blood draws on day 1. After the blood draw on day 1, subjects in group A only were dosed with SADBE. A petrolatum donut was applied with a cotton swab to form about a 1 cm diameter donut on skin on the inner aspect of the upper arm. Then a separate cotton swab was dipped in a 2% SADBE solution (w/v) in DMSO, and the swab was then used to apply about 10-20 mg of solution over about a 1 cm diameter circle within the petrolatum donut. Immediately after application, the application site was covered with TEGADERM. Subjects were advised to remove the TEGADERM and rinse and wipe the spot three hours later. The group A subjects then returned for blood draws on days 15 and 57 and were queried about adverse events on those dates.
PBMC were isolated using SepMate PBMC isolation tubes (Stem Cell Technologies, Vancouver, Canada) and Ficoll-Paque according to the manufacturer's instructions. PBMC were isolated and suspended in negative control medium at 2 million cells/ml. PBMC suspension (100 μL) was added to 100 μL of medium in quadruplicate in 96-well plates. The plates were prepared in advance and stored at −70° C. The wells were in five different conditions in quadruplicate with these final concentrations after addition of the 100 μL of PBMC suspension in negative control medium. • 1. Negative control in medium (RPMI with glutamine and pen/strep, supplemented with 10% human A/B serum). • 2. Medium plus 16 μg/ml protein from heat-inactivated HSV-1-infected Vero cell extracts. • 3. Medium plus heat-inactivated HSV-1 cell-free virus at a final 7.5 million pfu/ml. • 4. Medium plus Candida cell extract. (Greer item number M15A50, 20,000 pnu/ml allergenic extract mixed molds Candida albicans, was diluted 1/50 into medium). • 5. Positive control, medium plus 10 μg/ml concanavalin A.
A second plate was incubated for 4 days. On the 4th day 1 μCi of tritiated thymidine in 50 μl of fresh negative control medium was added to each well. After 22 hours incubation the cells were harvested onto a filter mat and each well counted by scintillation counting for tritium incorporation into DNA as a quantitative measure of cell division.
The relative proliferation for each test condition was calculated as (avg. CPM test condition−avg. CPM negative control)/(avg. CPM positive control−avg. CPM negative control). The average CPM is the average tritium counts per minute of the 4 wells in a given test condition for a given collection point of a given patient. To calculate the normalized proliferation to all three stimuli, each data point was converted to a percentage proliferation relative to the average proliferation to that stimulus in group C or group A day 57, whichever was being compared to.
Immediately after the blood collection on day 1, the group A subjects (frequent cold sore sufferers) were treated with one dose of topical 2% SADBE in DMSO applied to the inner aspect of the subject's arm. They returned for blood collection on day 15 and day 57, two and 8 weeks after the single dose of drug. The relative proliferation of PBMC from the group A subjects collected on days 1, 15, and 57, in response to the stimuli, is shown in Table 4.

Interleukin 2 = experiment: Plasma level of Interleukin 2; format: in vivo, human; details: for Interleukin 2 in plasma, group average / Interleukin 2 in plasma, number of subjects with undetectable levels: n = 12
Method: as §1
At this study visit where blood was drawn it was tested for blood cell counts, various cytokine levels, and anti-HSV-1 IgG quantitative levels.
All subjects had detectable IL-2 and the large majority had detectable IL-2 receptor.

CCCCOc1c(OCCCC)c(=O)c1=O [SADBE, 3,4-Dibutoxy-3-cyclobutene-1,2-dione]
PBMC Percent proliferation, normalized all three stimuli ([1]; group A Day 15): 71.65% | Percent proliferation, normalized all three stimuli ([1]; group A Day 57, largest and smallest difference data points removed, n = 30): 99.97% | PBMC Percent proliferation, normalized all three stimuli ([1]; group A Day 57): 99.97% | PBMC Percent proliferation ([1]; stimulus Candida extract, group A Day 15 after one SADBE treatment): 3.33% | Percent proliferation ([1]; stimulus Candida extract, group A Day 57): 3.19% | PBMC Percent proliferation ([1]; stimulus Candida extract, group A Day 57 after one SADBE treatment): 7.35% | PBMC Percent proliferation ([1]; stimulus HSV-1-infected cell extracts, group A Day 15 after one SADBE treatment): 15.43% | Percent proliferation ([1]; stimulus HSV-1-infected cell extracts, group A Day 57): 15.78% | PBMC Percent proliferation ([1]; stimulus HSV-1-infected cell extracts, group A Day 57 after one SADBE treatment): 16.96% | PBMC Percent proliferation ([1]; stimulus HSV-1 virus, group A Day 15 after one SADBE treatment): 10.52% | Percent proliferation ([1]; stimulus HSV-1 virus, group A Day 57): 12.88% | PBMC Percent proliferation ([1]; stimulus HSV-1 virus, group A Day 57 after one SADBE treatment): 13.37% | Interleukin 2 in plasma, Sample/A1 (Interleukin 2; A15 / group A day 1): 0.96 | Interleukin 2 in plasma, Sample minus A1 (Interleukin 2; A15 minus group A day 1): -0.54 pg/mL | Interleukin 2 in plasma, Sample/A1 (Interleukin 2; A57 / group A day 1): 0.84 | Interleukin 2 in plasma, Sample minus A1 (Interleukin 2; A57 minus group A day 1): -2.13 pg/mL | Interleukin 2 in plasma, group average (Interleukin 2; group A day 15 (A15)): 12.90 pg/mL | Interleukin 2 in plasma, number of subjects with undetectable levels (Interleukin 2; group A day 15 (A15)): 0 | Interleukin 2 in plasma, group average (Interleukin 2; group A day 57 (A57)): 11.30 pg/mL | Interleukin 2 in plasma, number of subjects with undetectable levels (Interleukin 2; group A day 57 (A57)): 0
